In ChEMBL document CHEMBL1128631, “Photoinduced electron transfer for pyrenesulfonamide conjugates of tryptophan-containing peptides. Mitigation of fluoroprobe behavior in N-terminal labeling experiments” (Bioorg Med Chem Lett, 1995):

Legend:
Format in all cases: ADME
[1] = Life-time was measured in the presence of methyl cyanide solvent (t = weighted average of two lifetimes from biexponential decay)
[2] = Life-time was measured in the presence of DMF solvent (t = weighted average of two lifetimes from biexponential decay)
[3] = Half-life time was measured in the presence of methyl cyanide solvent

| t [1] [ns] | t [2] [ns] | T1/2 [3] [us] | SMILES |
| --- | --- | --- | --- |
| 0.79 | 0.32 | – | CCOC(=O)[C@H](Cc1c[nH]c2ccccc12)NS(=O)(=O)c1ccc2ccc3cccc4ccc1c2c34 |
| 0.76 | 0.5 | – | CCOC(=O)[C@H](Cc1c[nH]c2ccccc12)NC(=O)[C@H](C)NS(=O)(=O)c1ccc2ccc3cccc4ccc1c2c34 |
| – | – | 0.16 | CCOC(=O)[C@H](Cc1c[nH]c2ccccc12)NC(=O)[C@H](C)NC(=O)[C@H](C)NS(=O)(=O)c1ccc2ccc3ccc([N+](=O)[O-])c4ccc1c2c34 |
| – | – | 12 | CCOC(=O)[C@H](C)NS(=O)(=O)c1ccc2ccc3ccc([N+](=O)[O-])c4ccc1c2c34 |
| – | – | 0.4 | CCOC(=O)[C@H](Cc1c[nH]c2ccccc12)NC(=O)[C@H](C)NS(=O)(=O)c1ccc2ccc3ccc([N+](=O)[O-])c4ccc1c2c34 |
| 3.1 | 1.3 | – | CCOC(=O)[C@H](Cc1c[nH]c2ccccc12)NC(=O)[C@H](C)NC(=O)[C@H](C)NS(=O)(=O)c1ccc2ccc3cccc4ccc1c2c34 |
